Read-outs that look alike come from different tables or passages of the source.

Test in all cases: FoID dehydrogenase (DH) enzyme assay
One assay concerns the target T1, spFoID (Streptococcus pneumoniae serotype 4, UniProt Q97RI9).
T1 construct: made in house; host or cells: E. coli BL21 (DE3)
The class given is biochemical, S. pneumoniae. On the procedure: (§1) (6R,S)-5,10-Methylene-5,6,7,8-tetrahydrofolic acid ((6R,S)-5,10-CH2-THF), calcium salt and (6R,S)-5,10-Methenyl-5,6,7,8-tetrahydrofolic acid ((6R,S)-5,10-CH=THF) chloride were purchased from Schircks Laboratories (Bauma, Switzerland) and were used as substrates for FoID dehydrogenase and cyclohydrolase enzyme assays, respectively. Only the R-isomer, which accounts for 50% of (6R,S)-5,10-CH2-THF and (6R,S)-5,10-CH=THF, respectively, is used by the enzyme. (6R,S)-5,10-CH2-THF was dissolved in N2-spargeled basic buffer (50 mM Tris-HCl (pH 8.0), 100 mM β-mercaptoethanol) as described by Sah and Varshney, 2015a (6R,S)-5,10-CH=THF was first dissolved in DMSO as a 100 mM stock solution.
Because FoID is a bifunctional enzyme, dehydrogenase and cyclohydrolase activities were determined for FoID enzyme kinetics, respectively. The dehydrogenase activity of FoID was assayed for its substrate 5,10-CH2-THF and cofactor NADP+ (in the case of MTHFD2, NAD+ was used as cofactor) based on monitoring the formation of 5,10-CH=THF while the cyclohydrolase activity of FoID was determined for its substrate 5,10-CH=THF by monitoring the hydrolysis of 5,10-CH2-THF. The enzyme kinetics for the dehydrogenase activity of all FoIDs except hsMTHFD1_DC were determined at 30° C. in 50 mM Tris-HCl (pH 7.5), 30 mM β-mercaptoethanol. The hsMTHFD1_DC dehydrogenase activity was measured in 25 mM MOPS (pH 7.3), 30 mM β-mercaptoethanol at 30° C. To measure the enzyme kinetics constants for 5,10-CH2-THF, for example in the case of ecFoID, the NADP concentration was fixed at 1 mM and the concentration of 5,10-CH2-THF varied from 5 μM to 1,500 μM (R-isomer). Similarly, to measure the kinetic constants of ecFoID for NADP+, the concentration of 5,10-CH2-THF (R-isomer) was fixed at 1 mM and the concentration of NADP+ varied from 10 μM to 1,500 μM. For different FoIDs, the varied concentration range of substrates could be different. […] To monitor the formation of 5,10-CH=THF, the absorbance of the reaction mixture was monitored at 350 nm in micro UV cuvettes (BRAND, Essex, Connecticut, USA). The concentration of 5,10-CH=THF produced in the reaction was determined using an extinction co-efficient of 0.0249 μM-1 cm-1. […] The consumption of 5,10-CH=THF was measured by recording the absorbance of the reactions at 355 nm using the TECAN Infinite 200 PRO equipped with a monochromator. […] The inhibition constants (Ki) of carolacton on FoID were determined by measuring the apparent Km values when adding certain amounts of carolacton to the enzyme reactions. […] To compare the inhibition effects of carolacton between the different FoIDs, the half maximal inhibitory concentration (IC50) of carolacton on the same amount of enzyme was determined for FoIDs involved in this study. […]

Another assay concerns the target T2, hsMTHFD1 DC301 (Homo sapiens, UniProt P11586).
T2 construct: We therefore expressed and purified hsMTHFD2 and hsMTHFD1_DC to test them biochemically; His-tag (vector pHis-TEV); made in house; host or cells: E. coli BL21 (DE3)
T2 sequence (P11586 2-291 limits assumed): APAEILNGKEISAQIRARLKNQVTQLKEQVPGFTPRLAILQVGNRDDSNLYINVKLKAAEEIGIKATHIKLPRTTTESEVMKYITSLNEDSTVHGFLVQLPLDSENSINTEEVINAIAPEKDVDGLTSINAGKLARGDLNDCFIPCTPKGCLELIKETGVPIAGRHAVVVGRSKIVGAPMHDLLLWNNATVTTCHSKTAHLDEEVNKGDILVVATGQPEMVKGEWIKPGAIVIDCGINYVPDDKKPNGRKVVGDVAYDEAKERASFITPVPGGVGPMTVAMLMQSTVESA
The class given is biochemical. As for the experimental part: as §1
(§2) Because FoID is a bifunctional enzyme, dehydrogenase and cyclohydrolase activities were determined for FoID enzyme kinetics, respectively. The dehydrogenase activity of FoID was assayed for its substrate 5,10-CH2-THF and cofactor NADP+ (in the case of MTHFD2, NAD+ was used as cofactor) based on monitoring the formation of 5,10-CH=THF while the cyclohydrolase activity of FoID was determined for its substrate 5,10-CH=THF by monitoring the hydrolysis of 5,10-CH2-THF. The enzyme kinetics for the dehydrogenase activity of all FoIDs except hsMTHFD1_DC were determined at 30° C. in 50 mM Tris-HCl (pH 7.5), 30 mM β-mercaptoethanol. The hsMTHFD1_DC dehydrogenase activity was measured in 25 mM MOPS (pH 7.3), 30 mM β-mercaptoethanol at 30° C. To measure the enzyme kinetics constants for 5,10-CH2-THF, for example in the case of ecFoID, the NADP concentration was fixed at 1 mM and the concentration of 5,10-CH2-THF varied from 5 μM to 1,500 μM (R-isomer). Similarly, to measure the kinetic constants of ecFoID for NADP+, the concentration of 5,10-CH2-THF (R-isomer) was fixed at 1 mM and the concentration of NADP+ varied from 10 μM to 1,500 μM. For different FoIDs, the varied concentration range of substrates could be different. The 50 μL reactions of dehydrogenase assays were initiated by adding appropriate amounts enzyme (4 nM ecFoID, 4 nM spFoID, 15 nM hsMTHFD1_DC, 20 nM hsMTHFD2, 20 nM G8S, 20 nM Q98H, 10 nM K54N, 200 nM ΔK54R55 in the corresponding assays) and terminated with 50 μL 1 M HCl after 2 min incubation at 30° C. To monitor the formation of 5,10-CH=THF, the absorbance of the reaction mixture was monitored at 350 nm in micro UV cuvettes (BRAND, Essex, Connecticut, USA). The concentration of 5,10-CH=THF produced in the reaction was determined using an extinction co-efficient of 0.0249 μM-1 cm-1. Cyclohydrolase activity for each FoID was assayed in the same buffer as dehydrogenase activity at 30° C. but for 30 s. The concentration of FoID used in each assay was 5 nM of ecFoID, spFoID and hsMTHFD1_DC, respectively, and 2 nM of hsMTHFD2. The consumption of 5,10-CH=THF was measured by recording the absorbance of the reactions at 355 nm using the TECAN Infinite 200 PRO equipped with a monochromator. To measure the enzyme kinetic constants, different concentrations of 5,10-CH=THF (varied from […]) were used in […] reaction mixtures. The inhibition constants (Ki) of carolacton on FoID were determined by measuring the apparent Km values when adding certain amounts of carolacton to the enzyme reactions. For ecFoID, 10 nM carolacton was added in the dehydrogenase assay and 50 nM carolacton was used in the cyclohydrolase assay. For spFoID, 25 nM carolacton was added in both dehydrogenase assay and cyclohydrolase assay. For hsMTHFD1_DC, 30 nM carolacton was added in the dehydrogenase assay and 10 nM in the cyclohydrolase assay. […] To compare the inhibition effects of carolacton between the different FoIDs, the half maximal inhibitory concentration (IC50) of carolacton on the same amount of enzyme was determined for FoIDs involved in this study. The enzyme concentration used to determine dehydrogenase activity IC50 was 10 nM, and the enzyme used for cyclohydrolase IC50 measurements was 5 nM. All enzyme kinetics measurements were performed as independent triplicates. […]

The next assay has as its target T3, hsMTHFD2 (Homo sapiens, UniProt P13995).
T3 construct: His-tag (vector pHis-TEV); made in house; host or cells: E. coli BL21 (DE3)
T3 sequence (P13995 36-350): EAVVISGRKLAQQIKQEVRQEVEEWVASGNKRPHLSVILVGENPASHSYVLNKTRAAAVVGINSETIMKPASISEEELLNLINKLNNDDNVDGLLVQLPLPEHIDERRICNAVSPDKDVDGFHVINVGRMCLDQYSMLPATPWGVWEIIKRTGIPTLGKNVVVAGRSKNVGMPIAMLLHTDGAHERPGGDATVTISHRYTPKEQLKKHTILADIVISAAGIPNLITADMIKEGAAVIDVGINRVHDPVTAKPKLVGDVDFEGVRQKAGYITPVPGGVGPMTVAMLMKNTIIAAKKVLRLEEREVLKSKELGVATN
The class given is biochemical. On the procedure:
as §1, §2

Where [1] appears, read: 10 nM enzyme, read-out: IC50, carolacton inhibition on DH activity.
Where [2] appears, read: vs 5,10-CH2-THF, read-out: Ki (5,10-CH2—THF), carolacton inhibition on DH activity.
[3] abbreviates: vs cofactor NADP+, read-out: Ki (NADP^+), carolacton inhibition on DH activity.

T1 sequence (Q97RI9 whole entry): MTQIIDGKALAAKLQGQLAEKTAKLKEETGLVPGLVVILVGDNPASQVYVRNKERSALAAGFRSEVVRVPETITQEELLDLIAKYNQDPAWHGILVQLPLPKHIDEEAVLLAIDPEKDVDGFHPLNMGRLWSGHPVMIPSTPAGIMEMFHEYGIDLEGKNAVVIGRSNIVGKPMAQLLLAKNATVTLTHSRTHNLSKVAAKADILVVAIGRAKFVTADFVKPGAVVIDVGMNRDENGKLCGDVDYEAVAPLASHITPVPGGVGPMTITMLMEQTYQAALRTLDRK

A word on the IC50: it is the point on the concentration scale where inhibition reaches its midpoint. A word on the IC80: it is the concentration needed for an effect of 80%. The term Ki denotes a dissociation constant, usually derived from enzyme kinetics or from competition with a known ligand. Turning to `CO[C@H](CC(=O)O)[C@@H](C)C(=O)[C@H](C)/C=C(\C)[C@H]1OC(=O)[C@H](O)[C@H](O)/C=C/[C@H](C)CCC[C@@H]1C` [Carolacton, carolacton], the results for the IC50 on spFoID (setting [1]), on hsMTHFD1 DC301 (setting [1]) and at hsMTHFD2 (setting [1]) were 36.8 nM, 38 nM and 6.5 nM, respectively. Besides, the 80% effect concentration (IC80) at spFoID (10 nM enzyme, read-out: IC80, carolacton inhibition on DH activity) came out at 169 nM. In addition, the inhibitory constant (Ki) on spFoID (setting [2]) came to 42.2 nM; at spFoID (setting [3]), 34.2 nM; at hsMTHFD1 DC301 (setting [2]) it was 5.93 nM; at hsMTHFD1 DC301 (setting [3]), 58.7 nM; at hsMTHFD2 (cofactor is NAD in the case of hsMTHFD2, read-out: Ki (NADP^+)^a, carolacton inhibition on DH activity), 16.7 nM; at hsMTHFD2 (setting [2]) it was 6.42 nM.
